Results: US6288060A, “Amino substituted pyrimidines and triazines” (Neurocrine Biosciences, Inc., priority 1998, dated 2001)

Biological target: T1, human CRF receptors (Homo sapiens, UniProt P34998)
T1 construct: expressed in transfected cells
T1 sequence (P34998 24-415): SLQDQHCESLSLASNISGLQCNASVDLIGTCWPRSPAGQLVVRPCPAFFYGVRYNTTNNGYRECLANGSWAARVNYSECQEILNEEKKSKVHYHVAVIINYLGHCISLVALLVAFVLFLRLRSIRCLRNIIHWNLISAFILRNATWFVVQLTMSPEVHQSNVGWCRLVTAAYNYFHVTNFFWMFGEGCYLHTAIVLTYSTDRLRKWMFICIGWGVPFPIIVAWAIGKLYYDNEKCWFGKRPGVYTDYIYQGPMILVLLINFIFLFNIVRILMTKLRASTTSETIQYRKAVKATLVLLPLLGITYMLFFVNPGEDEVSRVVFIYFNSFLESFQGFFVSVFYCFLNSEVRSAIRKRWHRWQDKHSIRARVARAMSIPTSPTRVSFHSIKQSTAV
Assay: radioligand binding assay, displacement of [125I]tyrosine-ovine CRF from CRF receptor (stably transfected cells)
Conditions: for Ki: [125I]tyrosine-ovine CRF ~200 pM, cells stably transfected with human CRF receptors, 2 hours at 22° C.
Description: The effectiveness of a compound as a CRF receptor antagonist may be determined by various assay methods. […] CRF receptor affinity may be determined by binding studies that measure the ability of a compound to inhibit the binding of a radiolabeled CRF (e.g. [^125 I]tyrosine CFR) to receptor (e.g., receptors prepared from rat cerebral cortex membranes). The radioligand binding assay described by DeSouza et al. (supra, 1987) provides an assay for determining a compound's affinity for the CRF receptor.
where L=radioligand and KD =affinity of radioligand for receptor (Cheng and Prusoff, Biochem. Pharmacol. 22:3099, 1973).
By utilizing various radiolabeled CRF ligands, the assay may be used to evaluate the binding activity of the compounds of the present invention with any CRF receptor subtype. Briefly, the binding assay involves the displacement of a radiolabeled CRF ligand from the CRF receptor.
More specifically, the binding assay was performed in 1.5 ml Eppendorf tubes using approximately 1×10^6 cells per tube stably transfected with human CRF receptors. Each tube received about 0.1 ml of assay buffer (e.g., Dulbecco's phosphate buffered saline, 10 mM magnesium chloride, 20 μM bacitracin) with or without unlabeled sauvagine, urotensin I or CRF (final concentration, […]) to determine nonspecific binding, 0.1 ml of [^125 I] tyrosine--ovine CRF (final concentration ~200 pM or approximately the KD as determined by Scatchard analysis) and 0.1 ml of a membrane suspension of cells containing the CRF receptor. The mixture was incubated for 2 hours at 22° C. followed by the separation of the bound and free radioligand by centrifugation. Following two washes of the pellets, the tubes were cut just above the pellet and monitored in a gamma counter for radioactivity at approximately 80% efficiency. All radioligand binding data was analyzed using a non-linear least-square curve-fitting program. Binding activity corresponds to the concentration (nM) of the compound necessary to displace 50% of the radiolabeled ligand from the receptor.

| SMILES | Ki | score in CRF receptor binding test (ranking among compounds) (result in words, same radioligand binding assay) |
| --- | --- | --- |
| CCCN(CC1CC1)c1nc(C)nc(C(=O)c2c(CC)cc(CC)cc2CC)c1C [Compound 8] | ≤ 250 nM | best score |
| C=CCN(CC=C)c1nc(C)nc(C(=O)c2c(C)cc(C)cc2C)c1C [Compound 14] | ≤ 250 nM | – |
| CCCN(CC1CC1)c1nc(C)nc(Cc2c(OC)cc(OC)cc2OC)c1C [Compound 20, 2,6-dimethyl-4-(N-propyl-N-cyclopropylmethylamino)-6-(2',4',6'-trimethyloxyphenylmeth-1'-yl)-pyrimidine] | ≤ 250 nM | – |
| CCCN(CCC)c1nc(C)nc(C(=O)c2c(C)cc(C)cc2C)c1C [Compound 13] | ≤ 250 nM | – |
| CCCN(CC1CC1)c1nc(C)nc(C(=O)c2c(C)cc(C)cc2C)c1C [Compound 5] | ≤ 250 nM | – |
| CCCN(CC1CC1)c1nc(C)nc(C(=O)c2c(OC)cc(OC)cc2OC)c1C [Compound 2] | ≤ 250 nM | – |
